The target of assay [1] is hNurr1_RXRγFL (NURR1/RXRγ heterodimer) (Homo sapiens, UniProt P43354+P48443). In words: Transactivation assay in Cos-7 cells, NURR-1-Gal4 / RXRγ, luciferase reporter. The format is cell-based. As to conditions: for Emax: COS-7, read-out: hNurr1_RXRγFL Eff (%), efficacy in % relative to the reference XCT0135908 at 2·10^−5 M (=100%); for EC50: Cos-7 cells, overnight incubation. An outline of the steps:
(§1)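 Efficiency is given as a percentage of the induction produced by 2·10^−5 M XCT0135908 (100%), measured from heterodimer baseline. Read-out was luciferase after overnight exposure to compounds (10^−4–3·10^−10 M final) in Cos-7 cells transfected with NURR-1-Gal4, RXRα or RXRγ, and a Gal4 luciferase reporter.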
For orientation: A reporter such as luciferase makes a cellular process visible.

In assay [2] the target is hNurr1_RXRαFL (NURR1/RXRα heterodimer) (Homo sapiens, UniProt P19793+P43354). Description: Transactivation assay in Cos-7 cells, NURR-1-Gal4 / RXRα, luciferase reporter. The format is cell-based. As to conditions: for Emax: COS-7, read-out: hNurr1_RXRαFL Eff (%), efficacy in % relative to the reference XCT0135908 at 2·10^−5 M (=100%); for EC50: Cos-7 cells, overnight incubation. An outline of the steps:
as §1

In patent US20120232070A1, “Use of Indole Derivatives as Nurr-1 Activators for the Application Thereof as a Medicament for the Treatment of Parkinson's Disease” (Laboratoires Fournier SA, priority 2009, published 2012) one finds Emax and EC50 data, which are given here for 17 compounds.

Bounds are passed on as bounds.

Chain of hNurr1_RXRγFL (NURR1/RXRγ heterodimer) (P43354 328-598): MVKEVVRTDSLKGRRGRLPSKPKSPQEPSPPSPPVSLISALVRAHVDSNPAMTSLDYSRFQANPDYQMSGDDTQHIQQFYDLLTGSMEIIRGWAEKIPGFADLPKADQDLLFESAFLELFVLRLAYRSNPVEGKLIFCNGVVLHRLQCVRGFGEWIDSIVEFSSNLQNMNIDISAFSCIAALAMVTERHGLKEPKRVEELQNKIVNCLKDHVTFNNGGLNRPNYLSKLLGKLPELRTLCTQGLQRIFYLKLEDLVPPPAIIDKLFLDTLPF
Chain of hNurr1_RXRγFL (NURR1/RXRγ heterodimer) (P48443 whole entry, the tested form may be a part): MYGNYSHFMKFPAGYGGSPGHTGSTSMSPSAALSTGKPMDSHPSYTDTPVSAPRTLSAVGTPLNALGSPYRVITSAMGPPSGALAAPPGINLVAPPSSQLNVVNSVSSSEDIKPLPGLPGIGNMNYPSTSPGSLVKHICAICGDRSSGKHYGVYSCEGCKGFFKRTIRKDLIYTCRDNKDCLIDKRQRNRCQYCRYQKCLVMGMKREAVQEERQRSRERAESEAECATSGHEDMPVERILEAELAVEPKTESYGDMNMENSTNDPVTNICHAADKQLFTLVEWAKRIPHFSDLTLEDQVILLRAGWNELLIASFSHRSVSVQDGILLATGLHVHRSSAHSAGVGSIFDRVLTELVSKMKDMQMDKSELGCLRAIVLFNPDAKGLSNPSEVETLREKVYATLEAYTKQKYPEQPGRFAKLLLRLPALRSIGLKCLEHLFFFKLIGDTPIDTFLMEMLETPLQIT
Chain of hNurr1_RXRαFL (NURR1/RXRα heterodimer) (P19793 whole entry, the tested form may be a part): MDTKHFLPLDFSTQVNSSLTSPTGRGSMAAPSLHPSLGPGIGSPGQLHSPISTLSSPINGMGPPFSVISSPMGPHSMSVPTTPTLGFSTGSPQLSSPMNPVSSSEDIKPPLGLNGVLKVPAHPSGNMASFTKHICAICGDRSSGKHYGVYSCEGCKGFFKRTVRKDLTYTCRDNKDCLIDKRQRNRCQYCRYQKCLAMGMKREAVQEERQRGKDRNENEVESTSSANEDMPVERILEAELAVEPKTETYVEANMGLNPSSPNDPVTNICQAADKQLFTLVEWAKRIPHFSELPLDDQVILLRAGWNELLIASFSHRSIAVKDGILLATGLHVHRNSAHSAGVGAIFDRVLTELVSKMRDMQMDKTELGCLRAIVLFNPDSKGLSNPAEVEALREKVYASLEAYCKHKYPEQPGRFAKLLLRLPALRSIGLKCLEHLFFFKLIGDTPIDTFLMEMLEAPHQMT
Chain of hNurr1_RXRαFL (NURR1/RXRα heterodimer) (P43354 328-598): as the sequence (P43354 328-598) above

On to `Cc1cc(Cc2cc3cc(C(F)(F)F)ccc3n2S(=O)(=O)c2cccc(C(C)(C)C)c2)c(F)cc1C(=O)O` [Example 196, 4-[[1-[[3-(1,1-dimethylethyl)phenyl]sulfonyl]-5-trifluoromethyl-1H-indol-2-yl]methyl]-5-fluoro-2-methyl-benzoic acid], for which, in assay [1], the Emax came to 91% and the EC50 – broadly, the concentration that produces a half-maximal response – stood at 479 nM. For the same compound, in assay [2], the Emax worked out at 90% and the half-maximal effective concentration (EC50) came to 240 nM.
Turning to `Cc1cc(C(=O)O)ccc1Cc1cc2cc(C(F)(F)F)ccc2n1S(=O)(=O)c1cccc(C(C)(C)C)c1` [Example 197, 4-[[1-[[3-(1,1-dimethylethyl)phenyl]sulfonyl]-5-trifluoromethyl-1H-indol-2-yl]methyl]-3-methyl-benzoic acid], in assay [1], the Emax is 52% and it took 592 nM to reach a half-maximal effect (EC50). In assay [2], the Emax amounted to 68% and it took 278 nM to reach a half-maximal effect (EC50).
On the same counts, the results for `CC(C)(C)c1cccc(S(=O)(=O)n2c(Cc3ccc(S(N)(=O)=O)cc3)cc3cc(C(F)(F)F)ccc32)c1` [Example 198, 4-[[1-[[3-(1,1-dimethylethyl)-phenyl]sulfonyl]-5-trifluoromethyl-1H-indol-2-yl]methyl]-benzenesulfonamide] are 86%, over 10000 nM, 84% and 7940 nM.
As to `CC(C)(C)c1cccc(S(=O)(=O)n2c(Cc3cncc(C(=O)O)c3)cc3cc(C(F)(F)F)ccc32)c1` [Example 204, 3-[[1-[[3-(1,1-dimethylethyl)-phenyl]sulfonyl]-5-trifluoromethyl-1H-indol-2-yl]methyl]-5-pyridine carboxylic acid], in assay [1], the Emax worked out at 93% and the midpoint of the response, the EC50, lay at 195 nM. In assay [2], the Emax came out at 102% and the EC50 came out at 107 nM.
As to `CC(C)(C)c1cccc(S(=O)(=O)n2c(Cc3ccc(C(=O)O)c(Cl)c3)cc3cc(C(F)(F)F)ccc32)c1` [Example 206, 4-[[1-[[3-(1,1-dimethylethyl)-phenyl]sulfonyl]-5-trifluoromethyl-1H-indol-2-yl]methyl]-2-chlorobenzoic acid], in assay [1], the Emax came to 85% and the EC50 was 363 nM. In assay [2], the Emax was 71% and the response was half-maximal at 174 nM (EC50).
In the case of `CC(C)c1ccc(S(=O)(=O)n2c(Cc3ccc(C(=O)O)c(Cl)c3)cc3cc(C(F)(F)F)ccc32)cc1` [Example 209, 4-[[1-[[4-(1-methylethyl)-phenyl]sulfonyl]-5-trifluoromethyl-1H-indol-2-yl]methyl]-2-chlorobenzoic acid], in assay [1], the Emax worked out at 51% and a half-maximal effect (EC50) was put at 741 nM. For the same compound, in assay [2], the Emax was determined as 69% and the EC50 came out at 333 nM.
As to `CC(C)(C)c1cccc(S(=O)(=O)n2c(Cc3ccc(F)c(C(=O)O)c3)cc3cc(C(F)(F)F)ccc32)c1` [Example 210, 3-[[1-[[3-(1,1-dimethylethyl)-phenyl]sulfonyl]-5-trifluoromethyl-1H-indol-2-yl]methyl]-6-fluorobenzoic acid], in assay [1], the Emax is 68% and the EC50 was 81 nM. Further, in assay [2], the Emax came to 70% and a half-maximal effect (EC50) was put at 69 nM.
As to `CN1CCOc2ccc(S(=O)(=O)n3c(Cc4ccc(C(=O)O)c(Cl)c4)cc4cc(C(F)(F)F)ccc43)cc21` [Example 211, 4-[[1-[[4-methyl-3,4-dihydro-2H-benzo[1,4]oxazin-6-yl]-sulfonyl]-5-trifluoromethyl-1H-indol-2-yl]methyl]-2-chlorobenzoic acid], the results for the Emax in assay [1] and in assay [2] were 56% and 83%, respectively. In addition, the EC50 in assay [1] was 465 nM; in assay [2], 385 nM.
For `CN1CCOc2ccc(S(=O)(=O)n3c(Cc4ccc(F)c(C(=O)O)c4)cc4cc(C(F)(F)F)ccc43)cc21` [Example 212, 3-[[1-[[4-methyl-3,4-dihydro-2H-benzo[1,4]oxazin-6-yl]-sulfonyl]-5-trifluoromethyl-1H-indol-2-yl]methyl]-6-fluorobenzoic acid], in assay [1], the Emax was 81% and the EC50 came out at 40 nM. Further, in assay [2], the Emax worked out at 80% and a half-maximal effect (EC50) was put at 19 nM.
For the compound `O=C(O)c1cncc(Cc2cc3cc(Cl)ccc3n2S(=O)(=O)c2ccc3c(c2)OCCO3)c1` [Example 213, 3-[[1-[(2,3-dihydro-benzo[1,4]dioxin-6-yl)sulfonyl]-5-chloro-1H-indol-2-yl]methyl]-5-pyridine carboxylic acid], the values for the Emax in assay [1] and in assay [2] were 31% and 45%, respectively. Also, the 50% effective concentration (EC50) was over 10000 nM in assay [1] and 3000 nM in assay [2].
`O=C(O)c1ccc(F)c(Cc2cc3cc(C(F)(F)F)ccc3n2S(=O)(=O)c2ccc3c(c2)OCCO3)c1` [Example 214, 3-[[1-[(2,3-dihydro-benzo[1,4]dioxin-6-yl)sulfonyl]-5-trifluoromethyl-1H-indol-2-yl]methyl]-4-fluorobenzoic acid]: the Emax in assay [1] came out at 55%; in assay [2] it was 75%. In addition, the EC50 in assay [1] came out at 804 nM; in assay [2], 681 nM.
On to `CC(C)(C)c1cccc(S(=O)(=O)n2c(C(F)c3ccc(C(=O)O)cc3)cc3cc(C(F)(F)F)ccc32)c1` (centres unmarked) [Example 217, 4-[[1-[[3-(1,1-dimethylethyl)phenyl]sulfonyl]-5-(trifluoromethyl)-1H-indol-2-yl]fluoromethyl]benzoic acid], for which the Emax in assay [1] was found to be 80%; in assay [2], 83%. Besides, the EC50 was 355 nM in assay [1] and 149 nM in assay [2].
Turning to `CC(C)(C)c1cccc(S(=O)(=O)n2c(C(=O)c3ccc(C(=O)O)cc3)cc3cc(C(F)(F)F)ccc32)c1` [Example 219], in assay [1], the Emax came to 32% and the EC50 worked out at 3200 nM. In assay [2], the Emax stood at 57% and a half-maximal response (EC50) required 1130 nM.
In the case of `CC(C)(C)c1cccc(S(=O)(=O)n2c(Cc3ccc(-c4nn[nH]n4)cc3)cc3cc(C(F)(F)F)ccc32)c1` [Example 221, 4-[1-[3-(1,1-dimethylethyl)phenyl]sulfonyl]-5-(trifluoromethyl)-1H-indol-2H-tetrazol-5-yl-benzyl], in assay [1], the Emax is 57% and the EC50 came out at 162 nM. For the same compound, in assay [2], the Emax was 66% and the concentration giving a half-maximal response (EC50) turned out to be 191 nM.
Regarding `CC(C)(C)c1cccc(S(=O)(=O)n2c(Cc3ccc(-c4noc(=O)[nH]4)cc3)cc3cc(C(F)(F)F)ccc32)c1` [Example 222, 3-[[4-[1-[[3-(1,1-dimethylethyl)phenyl]sulfonyl]-5-(trifluoromethyl)-1H-indol-2-yl]methyl]-phenyl]-4H-[1,2,4]oxadiazol-5-one], the Emax came to 55% in assay [1] and 62% in assay [2]. The values for the EC50 in assay [1] and in assay [2] were 676 nM and 367 nM, respectively.
Turning to `CC(C)(C)c1cccc(S(=O)(=O)n2c(Cc3ccc(C=C4SC(=S)NC4=O)cc3)cc3cc(C(F)(F)F)ccc32)c1` [Example 223], in assay [1], the Emax was determined as 30% and the EC50 amounted to 3390 nM. In assay [2], the Emax came to 72% and the EC50 was determined as 1320 nM.
In the case of `CC(C)(C)c1cccc(S(=O)(=O)n2c(Cc3ccc(-c4n[nH]c(=O)o4)cc3)cc3cc(C(F)(F)F)ccc32)c1` [Example 226, 5-[4-[[1-[[3-(1,1-dimethylethyl)phenyl]sulfonyl]-5-(trifluoromethyl)-1H-indol-2-yl]methyl]-phenyl]-3H-[1,3,4]oxadiazol-2-one], in assay [1], the Emax is 70% and the EC50 was over 10000 nM. In assay [2], the Emax was 82% and it took 465 nM to reach a half-maximal effect (EC50).
